From the NIST ThermoML archive (doi:10.1016/j.fluid.2012.08.024)
± gives the expanded uncertainty stated by the source.

What was measured:
[1] = mn = molality of the nth substance listed, in mol/kg; details: 298.15 K, 101 kPa, Liquid; for molar conductivity: Alternating current cell with electrodes; for mass density: Vibrating tube method
[2] = refractive index (Na D-line) (dimensionless); mn = molality of the nth substance listed, in mol/kg; details: 298.15 K, 101 kPa, Liquid, Standard Abbe refractometry

CCCCCCn1cc[n+](C)c1.[Br-] [3-hexyl-1-methyl-1H-imidazolium bromide] + O
[1]
Details	mass density [kg/m3]	molar conductivity [S·m2/mol]
m1 = 0.1017	1001.8 ± 0.29	–
m1 = 0.2038	1006.13 ± 0.3	–
m1 = 0.3005	1010.26 ± 0.3	–
m1 = 0.3716	–	0.01169 ± 4.2e-05
m1 = 0.4033	1014.58 ± 0.31	–
m1 = 0.9047	–	0.01149 ± 4.2e-05
m1 = 1.268	–	0.01134 ± 4.2e-05
m1 = 1.963	–	0.01117 ± 4.2e-05
m1 = 2.512	–	0.01099 ± 4.2e-05
m1 = 3.102	–	0.01085 ± 4.2e-05
m1 = 3.708	–	0.01072 ± 4.2e-05
m1 = 4.273	–	0.01055 ± 4.2e-05
m1 = 4.944	–	0.01044 ± 4.2e-05
m1 = 5.55	–	0.01034 ± 4.2e-05

O=C[C@H](O)[C@@H](O)[C@H](O)[C@H](O)CO [D-glucose] + O
Details	mass density, [1] [kg/m3]	refractive index, [2]
m1 = 0.0104	997.75 ± 0.29	1.3328 ± 0.0004
m1 = 0.03	999.09 ± 0.29	1.3334 ± 0.0004
m1 = 0.05	1000.45 ± 0.29	1.3339 ± 0.0004
m1 = 0.0705	1001.83 ± 0.29	1.3343 ± 0.0004
m1 = 0.0899	1003.13 ± 0.29	1.3349 ± 0.0004
m1 = 0.1102	1004.48 ± 0.3	1.3352 ± 0.0004
m1 = 0.1301	–	1.3357 ± 0.0004
m1 = 0.1496	–	1.3361 ± 0.0004
m1 = 0.1691	–	1.3366 ± 0.0004
